Legend:
Assay type in all cases: in vivo, rat
[1] = tested on: urethane-anesthetized female rats; experiment: Leak point pressure by direct compressing of the bladder (Example 4); settings: for leak point pressure after drug administration / leak point pressure increase / leak point pressure before drug administration: i.v., mean ± SEM; for leak point pressure after drug administration: 20 min later; for leak point pressure before drug administration: baseline
Protocol: (§1) SD female rats (body weight 180-350 g) were anesthetized with urethane (Wako Pure Chemical Industries, Ltd.), and halothane (Takeda Pharmaceutical Company Limited) anesthesia was added when necessary during operation.
(§2) The spinal cord was transected at T8-9 level to eliminate the reflex voiding. The lower abdomen was incised in the median line, a catheter for intravesical pressure measurement (PE-90, Clay Adams) was inserted into the bladder and secured with a ligature, and the intravesical pressure was measured via a pressure transducer. Urine was emptized in advance by bilaterally pressing the bladder with two swabs, and a 0.1% Evans blue (Merck) solution (0.4 mL) was injected into the bladder. The bladder was gradually compressed bilaterally with two swabs, and the intravesical pressure upon saline leakage from the urethral orifice was measured and defined as a leak point pressure. The measurement of the leak point pressure was repeated, and the average value of the final five stable measures was taken as the value before drug administration. Thereafter, the drug was intravenously administered, the leak point pressure was measured again 20 min later, and the value after the drug administration was determined. DOI, mCPP and eltoprazine were dissolved in saline, and other drugs were dissolved in DMA/PEG400 (1:1), and intravenously administered at 1 ml/kg and 0.5 mg/kg, respectively. Depending on the experiment, RS-102221 or SB221284 (showing serotonin 5-HT2C receptor antagonist activity) was administered, 5 min later, WAY-161503 or WAY-163909 was administered, leak point pressure was measured 10 min later, and a competitive assay with the action of WAY-161503 or WAY-163909 was performed. RS-102221 and SB221284 were both dissolved in DMA/PEG400 (1:1), and intravenously administered at 0.5 ml/kg.

[2] = tested on: urethane-anesthetized female rats; experiment: Leak point pressure by abdominal wall-electrically stimulating method, serotonin 5-HT receptor agonists (Example 3); settings: for leak point pressure after drug administration / leak point pressure increase / leak point pressure before drug administration: i.v., mean ± SEM; for leak point pressure before drug administration: baseline
Protocol: (§3) SD female rats (body weight 180-350 g) were anesthetized with urethane (Wako Pure Chemical Industries, Ltd.), and the spinal cord was transected at T8-9 level to eliminate the reflex voiding. In addition, the nerve to the iliococcygeus muscle/pubococcygeus muscle on the one side was transected. During operation, halothane (Takeda Pharmaceutical Company Limited) anesthesia was added when necessary. A catheter (PE-90, Clay Adams) was inserted into the bladder and secured with a ligature, and the incised part of each of the abdominal muscle and skin was closed with sutures. The abdominal skin near the diaphragm was incised at two left and right positions to newly expose the abdominal muscle. An Evans Blue dye (Merck) solution was injected into the bladder, and the bladder volume was adjusted to 0.2-0.3 ml. The bladder catheter was connected to a pressure transducer, and the signals of the transducer were sent to a computer via an amplifier (blood pressure amplification unit AP-641G; NIHON KOHDEN) and an analog-to-digital converter (BIOPAC; MP100), and recorded on a hard disc. The data were analyzed on a computer using software (BIOPAC; AcqKnowledge). The exposed abdominal muscle was electrostimulated using an electrostimulator (SEN-3301; NIHON KODEN) and an isolator (SS-202J; NIHON KODEN), and the presence or absence of incontinence from the meatus urethra was observed. The electrostimulation was applied at a voltage of 2.5-50 V, duration of 0.5 milisec, and frequency 50 Hz for 1 sec, thereby gradually increasing the intravesical pressure. The peak intravesical pressure during stimulation of the abdominal wall was measured and, of the trials with observed incontinence, the lowest peak intravesical pressure was defined as the leak point pressure. Serotonin 5-HT receptor agonist, WAY-161503 (5-HT2C receptor agonist), WAY-163909 (5-HT2C receptor agonist), DOI (5-HT2A/2B/2C receptor agonist), mCPP (5-HT2B/2C receptor partial agonist), eltoprazine (5-HT1A/1B/2C receptor partial agonist), 8-OH-DPAT (5-HT1A receptor agonist), sumatryptan (5-HT1B/1D receptor agonist) and BW723C86 (5-HT2B receptor agonist) were intravenously administered, and the leak point pressure was compared before and after the administration. DOI, mCPP and eltoprazine were dissolved in saline, and other drugs were dissolved in DMA/PEG400 (1:1), and they were intravenously administered at 1 ml/kg and 0.5 mg/kg, respectively. Depending on the experiment, RS-102221 (serotonin 5-HT2C receptor antagonist) or SB221284 (serotonin 5-HT2B/2C receptor antagonist) was intravenously administered 5 min before WAY-161503 or WAY-163909 administration, and an antagonistic effect against the WAY-161503 or WAY-163909-induced increment of the leak point pressure was examined. RS-102221 and SB221284 were both dissolved in DMA/PEG400 (1:1) and intravenously administered at 0.5 ml/kg.

[3] = tested on: urethane-anesthetized female rats; experiment: Antagonism of the leak point pressure increase by WAY-161503 / WAY-163909, abdominal wall-electrically stimulating method (Example 3); settings: agonist 0.3 mg/kg, i.v., antagonist: solvent, mean ± SEM
Protocol: as §3

[4] = tested on: urethane-anesthetized female rats; experiment: Antagonism of the leak point pressure increase by WAY-161503 / WAY-163909, direct bladder compression method (Example 4); settings: agonist 0.3 mg/kg, i.v., antagonist: solvent, mean ± SEM
Protocol: as §1, §2

[5] = tested on: urethane-anesthetized female rats; experiment: Leak point pressure by intravesical pressure-clamp method (Example 6); settings: for leak point pressure after drug administration / leak point pressure before drug administration: i.v., mean ± SEM; for leak point pressure after drug administration: 10 min later; for leak point pressure before drug administration: baseline
Protocol: SD female rats (body weight 180-350 g) were anesthetized with urethane (Wako Pure Chemical Industries, Ltd.), and the spinal cord was transected at T8-9 level to eliminate the reflex voiding.
Halothane (Takeda Pharmaceutical Company Limited) anesthesia was added when necessary during operation. After laparotomy, the bladder neck was tied with a suture thread and then a catheter (PE-90, Clay Adams) was inserted into the bladder and secured with a ligature. The other end of the bladder catheter was connected to a pressure transducer and saline storage reservoir (60 ml syringe) via a three-way cock.
Changes in the intravesical pressure measured by a transducer were input in a computer via an amplifier (blood pressure amplification unit AP-641G; NIHON KODEN) and an analog-to-digital cinverter (MP-100; biopack) and recorded on a hard disc. The intravesical pressure was raised for 90 sec by setting the saline storage reservoir at a given height, and the presence or absence of saline leakage from the urethral orifice was observed. The intravesical pressure was raised every 2.5 cmH2O and, after 90 sec observation period, the intravesical pressure was once returned to 0 cmH2O, after which the next step was performed. The intravesical pressure at which the saline leakage from the urethral orifice was observed was taken as the leak point pressure. The measurement of the leak point pressure was repeated and the average of the final three measures was taken as the value before the drug administration. The drug was intravenously administered, and the leak point pressure was measured again 10 min later. The drug was dissolved in DMA-PEG400 (1:1), and administered at 0.5 ml/kg.

[6] = tested on: urethane-anesthetized female rats; experiment: Leak point pressure by abdominal wall electrostimulation, rats with nerve to iliococcygeus/pubococcygeus muscle transected on one side (Example 2); settings: for leak point pressure after drug administration / leak point pressure increase / leak point pressure before drug administration: i.v., mean ± SEM; for leak point pressure before drug administration: baseline
Protocol: SD female rats (body weight 180-350 g) were anesthetized with urethane (Wako Pure Chemical Industries, Ltd.), and the spinal cord was cut at T8-9 level to eliminate the reflex voiding. In addition, the nerve to the iliococcygeus muscle/pubococcygeus muscle on the one side was transected. During operation, halothane (Takeda Pharmaceutical Company Limited) anesthesia was added when necessary. A catheter (PE-90, Clay Adams) was inserted into the bladder and secured with a ligature, and the incised part of each of the abdominal muscle and skin was closed with sutures. The abdominal skin near the diaphragm was incised at two left and right positions to newly expose the abdominal muscle. An Evans Blue dye (Merck) solution was injected into the bladder, and the bladder volume was adjusted to 0.2-0.3 ml. The bladder catheter was connected to a pressure transducer, and the signals of the transducer were sent to a computer via an amplifier (blood pressure amplification unit AP-641G; NIHON KOHDEN) and an analog-to-digital converter (BIOPAC; MP100), and recorded on a hard disc. The data were analyzed on a computer using software (BIOPAC; AcqKnowledge). The exposed abdominal muscle was electrostimulated using an electrostimulator (SEN-3301; NIHON KODEN) and an isolator (SS-202J; NIHON KODEN), and the presence or absence of incontinence from the urethral orifice was observed. The electrostimulation was applied at a voltage of 3-50 V, duration of 0.05-0.5 milisec, and frequency 50 Hz for 1 sec, thereby gradually increasing the intravesical pressure. The peak intravesical pressure during stimulation of the abdominal wall was measured and, of the trials with observed incontinence, the lowest peak intravesical pressure was defined as the leak point pressure. The leak point pressure was compared before and after the duloxetine and midodrine administration. Duloxetine was dissolved in […] (DMA)/polyethylene glycol 400 (PEG400) (1:1), and intravenously administered at 0.5 ml/kg. Midodrine (hydrochloride, Sigma) was dissolved in saline and intravenously administered at 1 ml/kg.

SMILES: c1cc2c3c(c1)[C@H]1CCC[C@H]1N3CCNC2 [WAY-163909]
- leak point pressure after drug administration ([1]; 0.03 mg/kg): 73.3 ± 3.9 cmH2O
- leak point pressure increase ([1]; 0.03 mg/kg): 6.6 ± 2.2 cmH2O
- leak point pressure after drug administration ([1]; 0.1 mg/kg): 76.0 ± 2.7 cmH2O
- leak point pressure increase ([1]; 0.1 mg/kg): 11.8 ± 2.0 cmH2O
- leak point pressure after drug administration ([1]; 0.3 mg/kg): 69.9 ± 3.5 cmH2O
- leak point pressure increase ([1]; 0.3 mg/kg): 17.0 ± 1.8 cmH2O
- leak point pressure after drug administration ([1]; 1 mg/kg): 78.7 ± 5.7 cmH2O
- leak point pressure increase ([1]; 1 mg/kg): 20.4 ± 4.0 cmH2O
- leak point pressure after drug administration ([1]; 3 mg/kg): 78.7 ± 4.7 cmH2O
- leak point pressure increase ([1]; 3 mg/kg): 26.0 ± 3.5 cmH2O
- leak point pressure before drug administration ([1]; dose group 0.03 mg/kg): 66.6 ± 5.1 cmH2O
- leak point pressure before drug administration ([1]; dose group 0.1 mg/kg): 64.2 ± 1.3 cmH2O
- leak point pressure before drug administration ([1]; dose group 0.3 mg/kg): 52.9 ± 3.6 cmH2O
- leak point pressure before drug administration ([1]; dose group 1 mg/kg): 58.4 ± 2.3 cmH2O
- leak point pressure before drug administration ([1]; dose group 3 mg/kg): 52.7 ± 1.4 cmH2O
- effect on leak point pressure ([1]; intravenous administration): dose-dependently increased the leak point pressure
- leak point pressure after drug administration ([2]; 0.03 mg/kg): 43.0 ± 6.3 cmH2O
- leak point pressure increase ([2]; 0.03 mg/kg): 3.5 ± 3.1 cmH2O
- leak point pressure after drug administration ([2]; 0.1 mg/kg): 55.5 ± 1.8 cmH2O
- leak point pressure increase ([2]; 0.1 mg/kg): 11.1 ± 3.0 cmH2O
- leak point pressure after drug administration ([2]; 0.3 mg/kg): 55.9 ± 8.5 cmH2O
- leak point pressure increase ([2]; 0.3 mg/kg): 14.4 ± 3.9 cmH2O
- leak point pressure after drug administration ([2]; 1 mg/kg): 67.1 ± 5.2 cmH2O
- leak point pressure increase ([2]; 1 mg/kg): 24.0 ± 3.1 cmH2O
- leak point pressure before drug administration ([2]; dose group 0.03 mg/kg): 39.5 ± 4.3 cmH2O
- leak point pressure before drug administration ([2]; dose group 0.1 mg/kg): 44.4 ± 4.5 cmH2O
- leak point pressure before drug administration ([2]; dose group 0.3 mg/kg): 41.6 ± 6.0 cmH2O
- leak point pressure before drug administration ([2]; dose group 1 mg/kg): 43.1 ± 3.4 cmH2O
- dose at which a significant effect on the leak point pressure was afforded ([2]; intravenous administration): not less than 0.1 mg/kg
- effect on leak point pressure ([2]; intravenous administration): dose-dependently increased the leak point pressure
- leak point pressure after drug administration [3]: 57.6 ± 4.5 cmH2O
- leak point pressure increase [3]: 13.7 ± 2.2 cmH2O
- leak point pressure before drug administration ([3]; baseline): 43.9 ± 4.3 cmH2O
- leak point pressure after drug administration [4]: 77.6 ± 3.8 cmH2O
- leak point pressure increase [4]: 15.0 ± 1.1 cmH2O
- leak point pressure before drug administration ([4]; baseline): 62.6 ± 4.2 cmH2O

SMILES: C[C@]12CCC(=O)C[C@@H]1CC[C@@H]1[C@@H]2CC[C@]2(C)[C@@H](O)CC[C@@H]12 [DHT, dihydrotestosterone]
- leak point pressure after drug administration ([5]; 0.3 mg/kg): 35.5 ± 3.9 cmH2O
- leak point pressure after drug administration ([5]; 1 mg/kg): 41.1 ± 3.4 cmH2O
- leak point pressure after drug administration ([5]; 3 mg/kg): 36.9 ± 2.1 cmH2O
- leak point pressure before drug administration ([5]; dose group 0.3 mg/kg): 32.1 ± 3.9 cmH2O
- leak point pressure before drug administration ([5]; dose group 1 mg/kg): 35.7 ± 3.1 cmH2O
- leak point pressure before drug administration ([5]; dose group 3 mg/kg): 30.5 ± 2.2 cmH2O
- effect on leak point pressure ([5]; intravesical pressure-clamp method): increased the leak point pressure

SMILES: COc1ccc(OC)c(C(O)CNC(=O)CN)c1 (centres unmarked) [midodrine]
- leak point pressure after drug administration ([6]; 3 mg/kg): 39.5 ± 7.5 cmH2O
- leak point pressure increase ([6]; 3 mg/kg): 3.3 ± 4.0 cmH2O
- leak point pressure after drug administration ([6]; 10 mg/kg): 45.1 ± 3.8 cmH2O
- leak point pressure increase ([6]; 10 mg/kg): 6.1 ± 1.4 cmH2O
- leak point pressure before drug administration ([6]; dose group 3 mg/kg): 36.2 ± 4.8 cmH2O
- leak point pressure before drug administration ([6]; dose group 10 mg/kg): 38.9 ± 4.5 cmH2O
- effect on leak point pressure, comparison before and after administration ([6]; intravenously administered): significant increase in the leak point pressure

— patent US8685924B2, “Preventives/remedies for stress urinary incontinence and method of screening the same” (Takeda Pharmaceutical Company Limited, priority 2004, dated 2014)
